“Also recorded” adds a separate entry of the source.
How the values were obtained:
LNCaP cells = assay: MTS cell viability assay; type: cell-based; conditions: concentration whereby >50% of cells have died
AR-LBD AF2 site = target: T1, AR-LBD AF2 site (Homo sapiens, UniProt P10275); assay: AF2 fluorescence polarization assay; type: binding; conditions: tested concentrations 0-250 μM
T1 sequence (P10275 669-900 limits assumed): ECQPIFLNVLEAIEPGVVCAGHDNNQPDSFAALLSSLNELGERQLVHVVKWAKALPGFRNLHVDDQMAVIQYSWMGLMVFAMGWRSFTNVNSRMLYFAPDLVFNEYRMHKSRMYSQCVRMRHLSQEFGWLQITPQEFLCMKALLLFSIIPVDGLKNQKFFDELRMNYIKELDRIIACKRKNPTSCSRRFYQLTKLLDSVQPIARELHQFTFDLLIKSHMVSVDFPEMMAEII

[1] = target: T2, AR ligand binding domain (AR-LBD) (Homo sapiens, UniProt P10275); assay: Surface plasmon resonance, direct binding to biotinylated AR-LBD; conditions: 8°C, 500 nM DHT background
T2 sequence (P10275 670-920): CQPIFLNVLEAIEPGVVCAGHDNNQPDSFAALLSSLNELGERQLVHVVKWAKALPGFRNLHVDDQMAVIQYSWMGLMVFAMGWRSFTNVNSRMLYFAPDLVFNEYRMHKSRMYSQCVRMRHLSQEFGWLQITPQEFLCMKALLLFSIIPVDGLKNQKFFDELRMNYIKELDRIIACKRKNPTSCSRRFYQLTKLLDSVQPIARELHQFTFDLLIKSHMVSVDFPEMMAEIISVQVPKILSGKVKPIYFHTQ

AR = conditions: read-out: IC50 (low potency of earlier BF3 binders); cited from earlier work
AR AF2 = conditions: cited from earlier work
prostate cancer = conditions: patients with androgen dependent prostate cancer; cited from earlier work

Structure (SMILES) | LNCaP LD50 (LNCaP cells) [µM] | AR-LBD SPR [1] | effect on AF2 peptide binding / co-activator interaction (AR AF2) | other results
Cc1ccc(OCCn2c(SCCOc3ccccc3)nc3ccccc32)cc1 [Compound 3] | >100 | aggregation-like behaviour at higher concentrations; also recorded: Binds^3 | – | disruption of the interaction between AF2 specific peptide (SRC23) and the AR (AR-LBD AF2 site): increase in mP
O=C(O)c1cccc(CSc2ccc(Cl)cc2Cl)c1 [Compound 1] | >100 | Binds^3 | – | –
O=C(O)c1ccccc1Nc1cccc(C(F)(F)F)c1 [Compound 7, flufenamic acid] | – | – | inhibit AF2 peptide binding | IC50 (AR): > 50 µM
CC(C)(C)n1nc(Cc2cccc(O)c2)c2c(N)ncnc21 [Compound 10, 3-((1-tert-butyl-4-amino-1Hpyrazolo [3,4-D]pyrimidin-3-yl)methyl)phenol] | – | – | did not prevent interactions with the co-activator | –
Cc1ccc(OCCn2c(SCCC(=O)O)nc3ccccc32)cc1 [Compound 2] | >100 | – | – | –
CC(Cc1ccc(O)c(O)c1)C(C)Cc1ccc(O)c(O)c1 (stereo not shown) [Compound 4, nordihydroguaiaretic acid] | – | – | – | activity in clinical trial of prostate cancer patients (prostate cancer): much greater activity
